Measured values reported in US20230293517A1, “ANTAGONIST COMPOUNDS” (AdoRx Therapeutics Limited, priority 2020, published 2023).

Legend:
human PBMCs = assay: CD3/CD28 stimulated IL-2 release NECA reversal assay in human PBMCs; format: cell-based; conditions: PBMC, 1 uM NECA, 24 hours, IL-2 in culture supernatant
In short: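 PBMCs from citrated healthy-donor blood plated at 50,000 cells/well on 1 ug/ml CD3 antibody with 1 ug/ml CD28 antibody, 1 uM NECA and 0.003-10 μM antagonist (final), 24 h at 37° C. Supernatant IL-2 measured by MSD immunoassay; % inhibition set against no-NECA control wells as 100%.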

[1] = molecular target: human Adenosine A2a receptor (Homo sapiens (Human), UniProt P29274); assay: Adenosine receptor TR-FRET binding assay (A2a); conditions: inhibition of binding of 100 nM CA200645, CHO cell membranes
In short: (§1)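 In this homogeneous assay, test compounds compete with tracer CA200645 for Tb-labelled human adenosine receptors expressed in CHO cell membranes over 2 h at room temperature. Tracer levels differ by subtype: 30 nM for A2b, 100 nM for A1, A2a and A3. Specific FRET signal yields IC50, converted to Ki.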

[2] = test system: CD8+T cells in human whole blood; assay: Measurement of pCREB in CD8+T cells in human whole blood; format: cell-based; conditions: 3 μM NECA, rolipram
In short: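 Heparinised human whole blood pre-incubated 20 min at 37 °C with serially diluted A2a antagonists plus rolipram, then stimulated 60 min with 3 μM NECA (final). After fixation and red-cell lysis, white cells were permeabilized and stained for phospho-CREB and CD8; pCREB in CD8+ T cells measured by flow cytometry.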

[3] = molecular target: human Adenosine A3 receptor (Homo sapiens (Human), UniProt P0DMS8); assay: Adenosine receptor TR-FRET binding assay (A3); conditions: inhibition of binding of 100 nM CA200645, CHO cell membranes
In short: as §1

[4] = molecular target: human Adenosine A1 receptor (Homo sapiens (Human), UniProt P30542); assay: Adenosine receptor TR-FRET binding assay (A1); conditions: inhibition of binding of 100 nM CA200645, CHO cell membranes
In short: as §1

[5] = molecular target: human Adenosine A2b receptor (Homo sapiens (Human), UniProt P29275); assay: Adenosine receptor TR-FRET binding assay (A2b); conditions: TR-FRET, inhibition of binding of 30 nM CA200645, CHO cell membranes
In short: as §1

Sequence of human Adenosine A1 receptor (P30542 whole entry): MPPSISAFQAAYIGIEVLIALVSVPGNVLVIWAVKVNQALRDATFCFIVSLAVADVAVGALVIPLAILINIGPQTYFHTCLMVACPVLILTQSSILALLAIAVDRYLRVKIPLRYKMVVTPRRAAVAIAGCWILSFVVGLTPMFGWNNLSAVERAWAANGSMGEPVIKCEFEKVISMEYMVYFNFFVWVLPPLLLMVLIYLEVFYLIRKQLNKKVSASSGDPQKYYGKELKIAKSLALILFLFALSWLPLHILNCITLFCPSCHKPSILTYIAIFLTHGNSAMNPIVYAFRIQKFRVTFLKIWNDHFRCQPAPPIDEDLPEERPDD
Sequence of human Adenosine A2b receptor (P29275 whole entry): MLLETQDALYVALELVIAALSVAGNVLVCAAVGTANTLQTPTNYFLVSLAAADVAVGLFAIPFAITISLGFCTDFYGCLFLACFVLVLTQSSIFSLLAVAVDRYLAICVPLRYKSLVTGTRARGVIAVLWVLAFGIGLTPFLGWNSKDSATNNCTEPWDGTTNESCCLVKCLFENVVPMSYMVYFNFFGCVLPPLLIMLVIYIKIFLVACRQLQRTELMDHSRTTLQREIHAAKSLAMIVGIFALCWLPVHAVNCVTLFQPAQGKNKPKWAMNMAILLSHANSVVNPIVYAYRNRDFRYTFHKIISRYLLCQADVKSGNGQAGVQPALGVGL
Sequence of human Adenosine A2a receptor (P29274 whole entry): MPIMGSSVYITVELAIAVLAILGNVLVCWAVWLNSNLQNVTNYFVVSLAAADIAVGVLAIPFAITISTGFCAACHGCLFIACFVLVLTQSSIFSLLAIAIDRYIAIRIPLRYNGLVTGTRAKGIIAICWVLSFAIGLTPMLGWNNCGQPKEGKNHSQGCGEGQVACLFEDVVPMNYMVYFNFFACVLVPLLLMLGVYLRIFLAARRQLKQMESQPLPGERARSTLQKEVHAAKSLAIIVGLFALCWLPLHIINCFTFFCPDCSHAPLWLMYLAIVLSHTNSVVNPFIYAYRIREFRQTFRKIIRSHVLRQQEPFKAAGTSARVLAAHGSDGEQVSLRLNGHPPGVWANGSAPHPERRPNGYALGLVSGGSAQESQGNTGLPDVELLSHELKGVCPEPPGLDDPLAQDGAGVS
Sequence of human Adenosine A3 receptor (P0DMS8 whole entry): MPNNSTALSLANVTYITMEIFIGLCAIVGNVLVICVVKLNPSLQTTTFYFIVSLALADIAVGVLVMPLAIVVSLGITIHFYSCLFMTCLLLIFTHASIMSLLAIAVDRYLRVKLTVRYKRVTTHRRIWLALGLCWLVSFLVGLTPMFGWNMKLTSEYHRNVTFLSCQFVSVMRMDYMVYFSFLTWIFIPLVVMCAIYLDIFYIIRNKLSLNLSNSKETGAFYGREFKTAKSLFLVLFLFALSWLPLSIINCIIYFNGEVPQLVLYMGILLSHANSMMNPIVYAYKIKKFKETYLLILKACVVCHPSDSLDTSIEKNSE

Ki [1] [nM] | IC50 [2] [nM] | Ki [3] [nM] | Ki [4] [nM] | Ki [5] [nM] | SMILES | IC50 (human PBMCs) [nM]
0.79 | 80 | 302 | 86 | 3.8 | Cc1cc(-c2sc(NC(=O)N3CCC4(CCNC(=O)C4)CC3)nc2-c2cccc(C#N)c2)cc(C)n1 [Example 6.26, N-[4-(3-Cyanophenyl)-5-(2,6-dimethyl-4-pyridyl)thiazol-2-yl]-10-oxo-3,9-diazaspiro[5.5]undecane-3-carboxamide] | 3.2
0.95 | 510 | 635 | 228 | 3.4 | Cc1cc(-c2sc(NC(=O)N3CCC4(CCOCC4)C3)nc2-c2cccc(C#N)c2)cc(C)n1 [Example 6.29, N-[4-(3-Cyanophenyl)-5-(2,6-dimethyl-4-pyridyl)thiazol-2-yl]-8-oxa-2-azaspiro[4.5]decane-2-carboxamide] | 5.3
0.82 | 530 | 187 | 97 | 2 | Cc1cc(-c2sc(NC(=O)N3CCC(N4CCNC4=O)CC3)nc2-c2cccc(C#N)c2)cc(C)n1 [Example 6.30, N-[4-(3-Cyanophenyl)-5-(2,6-dimethyl-4-pyridyl)thiazol-2-yl]-4-(2-oxoimidazolidin-1-yl)piperidine-1-carboxamide] | 6.9
0.83 | 230 | 719 | 109 | 5.4 | CN=S1(=O)CCN(C(=O)Nc2nc(-c3cccc(C#N)c3)c(-c3cc(C)nc(C)c3)s2)CC1 [Example 6.32, N-[4-(3-Cyanophenyl)-5-(2,6-dimethyl-4-pyridyl)thiazol-2-yl]-1-methylimino-1-oxo-1,4-thiazinane-4-carboxamide] | 8.6
0.83 | 580 | 278 | 170 | 3.6 | Cc1cc(-c2sc(NC(=O)N3CCC4(CC3)CC(=O)N(C)C4)nc2-c2cccc(C#N)c2)cc(C)n1 [Example 6.38, N-[4-(3-Cyanophenyl)-5-(2,6-dimethyl-4-pyridyl)thiazol-2-yl]-2-methyl-3-oxo-2,8-diazaspiro[4.5]decane-8-carboxamide] | 6
0.41 | 80 | 330 | 110 | 4.6 | Cc1cc(-c2sc(NC(=O)N3CCC4(CCC(=O)NC4)CC3)nc2-c2cccc(C#N)c2)cc(C)n1 [Example 6.40, N-[4-(3-Cyanophenyl)-5-(2,6-dimethyl-4-pyridyl)thiazol-2-yl]-3-oxo-2,9-diazaspiro[5.5]undecane-9-carboxamide] | 2.2
0.18 | 120 | 235 | 111 | 1.3 | Cc1cc(-c2sc(NC(=O)N3CCC(C#N)(C(C)(C)O)CC3)nc2-c2cccc(C#N)c2)cc(C)n1 [Example 6.41, 4-Cyano-N-[4-(3-cyanophenyl)-5-(2,6-dimethyl-4-pyridyl)thiazol-2-yl]-4-(1-hydroxy-1-methyl-ethyl)piperidine-1-carboxamide] | 2.7
0.39 | 130 | 438 | 44 | 9 | Cc1cc(-c2sc(NC(=O)N3CCN4C(=O)NCCC4C3)nc2-c2cccc(C#N)c2)cc(C)n1 (stereo not drawn) [Example 6.42, N-[4-(3-Cyanophenyl)-5-(2,6-dimethyl-4-pyridyl)thiazol-2-yl]-6-oxo-3,4,7,8,9,9a-hexahydro-1H-pyrazino[1,2-c]pyrimidine-2-carboxamide] | 5
0.4 | 100 | 299 | 151 | 2.4 | Cc1cc(-c2sc(NC(=O)N3CC4(C3)CC(C)(O)C4)nc2-c2cccc(C#N)c2)cc(C)n1 [Example 6.44, N-[4-(3-Cyanophenyl)-5-(2,6-dimethyl-4-pyridyl)thiazol-2-yl]-6-hydroxy-6-methyl-2-azaspiro[3.3]heptane-2-carboxamide] | 3.1

Further lines, the compound ahead of its results:

SMILES | Ki [1] [nM] | IC50 [2] [nM] | Ki [3] [nM] | Ki [4] [nM] | Ki [5] [nM] | IC50 (human PBMCs) [nM]
Cc1cc(-c2sc(NC(=O)N3CCN[C@H](C(N)=O)C3)nc2-c2cccc(C#N)c2)cc(Cl)n1 [Example 5.8, (3S)-N1-[5-(2-Chloro-6-methyl-4-pyridyl)-4-(3-cyanophenyl)thiazol-2-yl]piperazine-1,3-dicarboxamide] | 0.68 | 980 | 474 | 34 | 1.8 | 18.4
Cc1cc(-c2sc(NC(=O)N3CCC(C)(N)CC3)nc2-c2cccc(C#N)c2)cc(Cl)n1 [Example 5.9, 4-Amino-N-[5-(2-chloro-6-methyl-4-pyridyl)-4-(3-cyanophenyl)thiazol-2-yl]-4-methyl-piperidine-1-carboxamide] | 2.32 | 1000 | 125 | 82 | 4.3 | 18.3
Cc1cc(-c2sc(NC(=O)N3CCC4(CC3)CNC(=O)C4)nc2-c2cccc(C#N)c2)cc(C)n1 [Example 6.4, N-[4-(3-Cyanophenyl)-5-(2,6-dimethyl-4-pyridyl)thiazol-2-yl]-3-oxo-2,8-diazaspiro[4.5]decane-8-carboxamide] | 0.67 | 190 | 360 | 103 | 3.1 | 1.4
Cc1cc(-c2sc(NC(=O)N3CCC4(CC3)COC4)nc2-c2cccc(C#N)c2)cc(C)n1 [Example 6.10, N-[4-(3-Cyanophenyl)-5-(2,6-dimethyl-4-pyridyl)thiazol-2-yl]-2-oxa-7-azaspiro[3.5]nonane-7-carboxamide] | 0.3 | 40 | 316 | 14 | 1.2 | 2.9
Cc1cc(-c2sc(NC(=O)N3CCC4(CC3)CNC(=O)N4)nc2-c2cccc(C#N)c2)cc(C)n1 [Example 6.11, N-[4-(3-Cyanophenyl)-5-(2,6-dimethyl-4-pyridyl)thiazol-2-yl]-2-oxo-1,3,8-triazaspiro[4.5]decane-8-carboxamide] | 0.39 | 50 | 319 | 42 | 2.6 | 5.2
Cc1cc(-c2sc(NC(=O)N3CCC4(CC3)CN(C)C(=O)O4)nc2-c2cccc(C#N)c2)cc(C)n1 [Example 6.12, N-[4-(3-Cyanophenyl)-5-(2,6-dimethyl-4-pyridyl)thiazol-2-yl]-3-methyl-2-oxo-1-oxa-3,8-diazaspiro[4.5]decane-8-carboxamide] | 0.23 | 110 | 298 | 137 | 2.4 | 2.7
Cc1cc(-c2sc(NC(=O)N3CCN4CCS(=O)(=O)CC4C3)nc2-c2cccc(C#N)c2)cc(C)n1 (stereo not drawn) [Example 6.14, N-[4-(3-Cyanophenyl)-5-(2,6-dimethyl-4-pyridyl)thiazol-2-yl]-2,2-dioxo-3,4,6,7,9,9a-hexahydro-1H-pyrazino[2,1-c][1,4]thiazine-8-carboxamide] | 0.6 | 50 | 772 | 167 | 2.6 | 5.3
Cc1cc(-c2sc(NC(=O)N3CCN4C(=O)OCCC4C3)nc2-c2cccc(C#N)c2)cc(C)n1 (stereo not drawn) [Example 6.17, N-[4-(3-Cyanophenyl)-5-(2,6-dimethyl-4-pyridyl)thiazol-2-yl]-6-oxo-1,3,4,8,9,9a-hexahydropyrazino[1,2-c][1,3]oxazine-2-carboxamide] | 0.46 | 70 | 405 | 35 | 6.5 | 5.3
Cc1cc(-c2sc(NC(=O)N3CCN4C(=O)CCC4C3)nc2-c2cccc(C#N)c2)cc(C)n1 (stereo not drawn) [Example 6.18, N-[4-(3-Cyanophenyl)-5-(2,6-dimethyl-4-pyridyl)thiazol-2-yl]-6-oxo-1,3,4,7,8,8a-hexahydropyrrolo[1,2-a]pyrazine-2-carboxamide] | 0.33 | 40 | 332 | 70 | 6.1 | 5
Cc1cc(-c2sc(NC(=O)N3CCC4(CC3)CNC4=O)nc2-c2cccc(C#N)c2)cc(C)n1 [Example 6.20, N-[4-(3-Cyanophenyl)-5-(2,6-dimethyl-4-pyridyl)thiazol-2-yl]-3-oxo-2,7-diazaspiro[3.5]nonane-7-carboxamide] | 0.14 | 20 | 287 | 53 | 1.9 | 1.8
Cc1cc(-c2sc(NC(=O)N3CCC4(CCNC4=O)CC3)nc2-c2cccc(C#N)c2)cc(C)n1 [Example 6.24, N-[4-(3-Cyanophenyl)-5-(2,6-dimethyl-4-pyridyl)thiazol-2-yl]-1-oxo-2,8-diazaspiro[4.5]decane-8-carboxamide] | 0.99 | 90 | 224 | 129 | 2.5 | 4.7
